According to patent US20080194544A1, “AQUEOUS FORMULATIONS OF EPINASTINE FOR TREATING ALLERGIC RHINITIS” (priority 2007, published 2008):

Conditions: intranasal 0.05% or 0.1% spray
Experimental: Each group started with approximately 190 subjects.
The plasma samples from 43 subjects included in this clinical trial were collected for pharamacokinetic analysis following the first dose (Day 1) and the last dose (Day 14). Plasma epinastine levels following intranasal administration were determined.

NC1=NCC2c3ccccc3Cc3ccccc3N12 (centres unmarked) [epinastine, 3-amino-9,13b-dihydro-1H-dibenz-[c,-f]imidazol[1,5-a]azepine]
dose proportionality of plasma epinastine concentrations: generally proportional to the nasal dose administered
plasma concentrations of epinastine (after first dose (Day 1) and last dose (Day 14), 43 subjects): < 1 ng/mL
